pIC50: −log10 of the molar value.
How the values were obtained:
Format in all cases: cell-based
[1] = biological target: T1, human A2A receptor (Homo sapiens, UniProt P29274); test: functional cAMP (HTRF) assay, recombinant HEK293 cells expressing human A2A receptor, agonist NECA
T1 construct: expressed in transfected cells; host or cells: HEK293

[2] = biological target: T2, human A3 receptor (Homo sapiens, UniProt P0DMS8); test: functional cAMP (HTRF) assay, recombinant CHO cells expressing human A3 receptor, forskolin, agonist IB-MECA
T2 construct: expressed in transfected cells; host or cells: CHO
T2 sequence (P0DMS8 1-318): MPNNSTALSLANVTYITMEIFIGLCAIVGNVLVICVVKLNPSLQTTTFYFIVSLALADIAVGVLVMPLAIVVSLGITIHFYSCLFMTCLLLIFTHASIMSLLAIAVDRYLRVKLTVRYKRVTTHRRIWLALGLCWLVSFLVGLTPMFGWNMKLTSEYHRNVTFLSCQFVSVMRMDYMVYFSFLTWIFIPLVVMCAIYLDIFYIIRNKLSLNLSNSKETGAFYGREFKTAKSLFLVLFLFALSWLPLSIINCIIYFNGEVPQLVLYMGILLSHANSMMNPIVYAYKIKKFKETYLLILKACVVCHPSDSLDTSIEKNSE
Protocol: The functional activities of human A2A, A2B, A1 and A3 receptors were determined by quantification of cAMP, being the second messenger for adenosine receptors.
For human A1 and A3 receptors, recombinant CHO cells, expressing either A1 or A3-receptor, were used. As both receptors couple to Gi proteins, the assay protocol was adapted:
Cells were seeded into 384-well plates, forskolin, test compounds and agonists (CPA for A1- and IB-MECA for A3-receptor) were added. After 30 min incubation, HTRF reagents (cAMP dynamic 2, Cis Bio) were added and the cellular cAMP levels were determined using the ENVISION (Perkin Elmer) plate reader. Obtained raw data were normalized against the inhibitor control and the neural control (DMSO) and the normalized data were fitted using GeneData software.

[3] = biological target: T3, A2B receptors (Homo sapiens, UniProt P29275); test: functional cAMP (HTRF) assay, recombinant HEK293 cells expressing human A2B receptor, agonist NECA; design: expressed in transfected cells; host or cells: HEK293
T3 sequence (P29275 1-332): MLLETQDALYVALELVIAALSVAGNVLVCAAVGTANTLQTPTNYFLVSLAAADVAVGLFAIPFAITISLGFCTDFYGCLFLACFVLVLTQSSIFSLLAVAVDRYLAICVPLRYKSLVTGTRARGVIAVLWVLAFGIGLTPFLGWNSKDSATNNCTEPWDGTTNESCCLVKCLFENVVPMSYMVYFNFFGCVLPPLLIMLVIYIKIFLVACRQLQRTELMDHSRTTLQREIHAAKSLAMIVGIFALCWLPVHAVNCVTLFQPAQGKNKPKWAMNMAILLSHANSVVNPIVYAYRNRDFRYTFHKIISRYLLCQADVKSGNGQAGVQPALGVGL

T1 sequence (P29274 whole entry): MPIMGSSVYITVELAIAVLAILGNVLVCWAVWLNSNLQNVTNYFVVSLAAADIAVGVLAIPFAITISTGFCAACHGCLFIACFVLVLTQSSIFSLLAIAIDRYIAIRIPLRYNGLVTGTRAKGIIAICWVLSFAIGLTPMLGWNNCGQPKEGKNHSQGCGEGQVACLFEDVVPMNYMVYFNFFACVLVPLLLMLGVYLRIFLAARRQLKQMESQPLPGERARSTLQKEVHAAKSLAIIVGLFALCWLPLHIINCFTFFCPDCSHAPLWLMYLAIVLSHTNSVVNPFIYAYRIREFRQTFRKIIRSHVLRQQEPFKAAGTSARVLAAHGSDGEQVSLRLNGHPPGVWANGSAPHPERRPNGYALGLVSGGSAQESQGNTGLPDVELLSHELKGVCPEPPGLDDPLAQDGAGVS

Row | SMILES | pIC50 [1] | pIC50 [2] | pIC50 [3]
1 | COc1ccc(-c2cnn(CC(C)(C)O)c2)c2[nH]c(NC(=O)N3CCC(C)(O)CC3)nc12 [compound 238, 4-hydroxy-N-{7-[1-(2-hydroxy-2-methylpropyl)-1H-pyrazol-4-yl]-4-methoxy-1H-1,3-benzodiazol-2-yl}-4-methylpiperidine-1-carboxamide] | > 7.00 | < 6.00 | –
2 | COc1ccc(-c2cccc3cc[nH]c23)c2nc(NC(=O)N3CCC(C)(O)CC3)[nH]c12 [compound 305, 4-hydroxy-N-[4-(1H-indol-7-yl)-7-methoxy-1H-1,3-benzodiazol-2-yl]-4-methylpiperidine-1-carboxamide] | > 7.00 | < 6.00 | > 7.00
3 | COc1cc(F)c(C2CCOCC2)c2nc(NC(=O)c3ccc(C(=O)N(C)C)cc3)[nH]c12 [compound 277, N4-[5-fluoro-7-methoxy-4-(oxan-4-yl)-1H-1,3-benzodiazol-2-yl]-N1,N1-dimethylbenzene-1,4-dicarboxamide] | > 7.00 | < 6.00 | > 7.00
4 | COc1ccc(-c2cnn(C)c2)c2nc(NC(=O)N[C@@H]3CNC[C@@H]3F)[nH]c12 [compound 249, 1-[(3R,4S)-4-fluoropyrrolidin-3-yl]-3-[7-methoxy-4-(1-methyl-1H-pyrazol-4-yl)-1H-1,3-benzodiazol-2-yl]urea] | > 7.00 | – | –
5 | COc1ccc(-c2ccccc2)c2nc(NC(=O)c3cnc(C)o3)[nH]c12 [compound 308, N-(7-methoxy-4-phenyl-1H-1,3-benzodiazol-2-yl)-2-methyl-1,3-oxazole-5-carboxamide] | > 7.00 | – | > 7.00
6 | COc1cc(C#N)c(-c2ccccc2)c2nc(NC(=O)c3cnn(C)c3)[nH]c12 [compound 300, N-(5-cyano-7-methoxy-4-phenyl-1H-1,3-benzodiazol-2-yl)-1-methyl-1H-pyrazole-4-carboxamide] | > 7.00 | – | > 7.00
7 | COc1ccc(-c2cnn(C)c2)c2nc(NC(=O)C3CNC(=O)C3)[nH]c12 (stereo not drawn) [compound 246, N-[7-methoxy-4-(1-methyl-1H-pyrazol-4-yl)-1H-1,3-benzodiazol-2-yl]-5-oxopyrrolidine-3-carboxamide] | > 7.00 | < 6.00 | –
8 | COc1ccc(-c2ccccc2)c2[nH]c(NC(=O)c3ccc(C(=O)N(C)CCN(C)C)cc3)nc12 [compound 296, N1-[2-(dimethylamino)ethyl]-N4-(4-methoxy-7-phenyl-1H-1,3-benzodiazo1-2-yl)-N1-methylbenzene-1,4-dicarboxamide] | > 7.00 | > 6.00 | > 8.00
9 | COCCn1cc(C(=O)Nc2nc3c(-c4ccccc4)ccc(OC)c3[nH]2)cn1 [compound 307, N-(7-methoxy-4-phenyl-1H-1,3-benzodiazol-2-yl)-1-(2-methoxyethyl)-1H-pyrazole-4-carboxamide] | > 7.00 | – | > 8.00
10 | COc1ccc(-c2ccnc(C)c2)c2[nH]c(NC(=O)c3c[nH]cn3)nc12 [compound 299, N-[4-methoxy-7-(2-methylpyridin-4-yl)-1H-1,3-benzodiazol-2-yl]-1H-imidazole-4-carboxamide] | > 7.00 | – | > 7.00
11 | COCCn1cc(C(=O)Nc2nc3c(-c4ccc5[nH]ccc5c4)ccc(OC)c3[nH]2)cn1 [compound 302, N-[4-(1H-indol-5-yl)-7-methoxy-1H-1,3-benzodiazol-2-yl]-1-(2-methoxyethyl)-1H-pyrazole-4-carboxamide] | > 7.00 | – | > 7.00
12 | COc1ccc(-c2ccccc2)c2nc(NC(=O)c3cnc4ccccn34)[nH]c12 [compound 286, N-(7-methoxy-4-phenyl-1H-1,3-benzodiazol-2-yl)imidazo[1,2-a]pyridine-3-carboxamide] | > 7.00 | – | > 7.00
13 | COc1ccc(-c2cnn(C)c2)c2nc(NC(=O)NCc3nccs3)[nH]c12 [compound 247, 3-[7-methoxy-4-(1-methyl-1H-pyrazol-4-yl)-1H-1,3-benzodiazol-2-yl]-1-[(1,3-thiazol-2-yl)methyl]urea] | > 7.00 | < 6.00 | –
14 | COCCn1cc(C(=O)Nc2nc3c(-c4ccc5cc[nH]c5c4)ccc(OC)c3[nH]2)cn1 [compound 280, N-[4-(1H-indol-6-yl)-7-methoxy-1H-1,3-benzodiazol-2-yl]-1-(2-methoxyethyl)-1H-pyrazole-4-carboxamide] | > 7.00 | – | > 7.00
15 | COc1ccc(-c2ccccc2)c2nc(NC(=O)c3ccc(C(=O)N(C)C)cc3)[nH]c12 [compound 309, N4-(7-methoxy-4-phenyl-1H-1,3-benzodiazol-2-yl)-N1,N1-dimethylbenzene-1,4-dicarboxamide] | > 7.00 | – | > 8.00
16 | COCCn1cc(C(=O)Nc2nc3c(-c4ccn5ccnc5c4)ccc(OC)c3[nH]2)cn1 [compound 301, N-(4-{imidazo[1,2-a]pyridin-7-yl}-7-methoxy-1H-1,3-benzodiazol-2-yl)-1-(2-methoxyethyl)-1H-pyrazole-4-carboxamide] | > 7.00 | > 6.00 | –
17 | COc1ccc(-c2ccccc2)c2nc(NC(=O)c3cnc4ncccn34)[nH]c12 [compound 289, N-(7-methoxy-4-phenyl-1H-1,3-benzodiazol-2-yl)imidazo[1,2-a]pyrimidine-3-carboxamide] | > 7.00 | – | > 8.00
18 | COc1ccc(-c2ccc3[nH]ccc3c2)c2nc(NC(=O)N3CCC(C)(O)CC3)[nH]c12 [compound 303, 4-hydroxy-N-[4-(1H-indol-5-yl)-7-methoxy-1H-1,3-benzodiazol-2-yl]-4-methylpiperidine-1-carboxamide] | > 7.00 | < 6.00 | –

Results, then the compound that gave them:

Row | pIC50 [1] | pIC50 [2] | pIC50 [3] | SMILES
19 | > 7.00 | < 6.00 | – | COc1ccc(C2CCOCC2)c2nc(NC(=O)c3cccc(N=S(C)(C)=O)c3)[nH]c12 [compound 263, 3-{[dimethyl(oxo)-lambda6-sulfanylidene]amino}-N-[7-methoxy-4-(oxan-4-yl)-1H-1,3-benzodiazol-2-yl]benzamide]
20 | > 7.00 | – | > 8.00 | COc1ccc(-c2ccccc2)c2nc(NC(=O)c3cnn(C)c3)[nH]c12 [compound 306, N-(7-methoxy-4-phenyl-1H-1,3-benzodiazol-2-yl)-1-methyl-1H-pyrazole-4-carboxamide]
21 | > 8.00 | < 6.00 | < 6.00 | COc1ccc(N2CCCOCC2)c2nc(NC(=O)c3ccc(C(=O)N(C)C)cc3)[nH]c12 [compound 313, N4-[7-methoxy-4-(1,4-oxazepan-4-yl)-1H-1,3-benzodiazol-2-yl]-N1,N1-dimethylbenzene-1,4-dicarboxamide]
22 | > 7.00 | – | > 7.00 | COc1ccc(-c2ccccc2)c2nc(NC(=O)c3c[nH]c(-c4ccncc4)n3)[nH]c12 [compound 290, N-(7-methoxy-4-phenyl-1H-1,3-benzodiazol-2-yl)-2-(pyridin-4-yl)-1H-imidazole-4-carboxamide]
23 | > 8.00 | – | > 8.00 | COc1ccc(-c2cccc(F)c2)c2nc(NC(=O)c3cnn(C)c3)[nH]c12 [compound 239, N-[4-(3-fluorophenyl)-7-methoxy-1H-1,3-benzodiazol-2-yl]-1-methyl-1H-pyrazole-4-carboxamide]
24 | > 7.00 | > 6.00 | > 8.00 | COc1ccc(-c2ccccc2)c2[nH]c(NC(=O)c3ccc(C(=O)N4CCOCC4)cc3)nc12 [compound 298, N-(4-methoxy-7-phenyl-1H-1,3-benzodiazol-2-yl)-4-(morpholine-4-carbonyl)benzamide]
25 | > 8.00 | > 8.00 | > 7.00 | COc1ccc(-c2ccccc2)c2nc(NC(=O)c3ccnc(Br)c3)[nH]c12 [compound 3, 2-Bromo-N-(7-methoxy-4-phenyl-1H-benzoimidazol-2-yl)-isonicotinamide]
26 | > 8.00 | > 8.00 | > 7.00 | COc1ccc(-c2ccccc2)c2nc(NC(=O)c3ccc(Br)nc3)[nH]c12 [compound 5, 6-Bromo-N-(7-methoxy-4-phenyl-1H-benzoimidazol-2-yl)-nicotinamide]
27 | > 8.00 | – | > 7.00 | COc1ccc(-c2cnn(C)c2)c2nc(NC(=O)c3cnc(C)o3)[nH]c12 [compound 215, N-[7-methoxy-4-(1-methyl-1H-pyrazol-4-yl)-1H-1,3-benzodiazol-2-yl]-2-methyl-1,3-oxazole-5-carboxamide]
